Source: US12029751B2, “Therapeutic agent for nervous system disease” (OSAKA UNIVERSITY, priority 2017, dated 2024)

Experiments:
[1] = test system: Mouse macrophage cell line J774A.1; assay: Western blot of M1 markers (IL-1β, iNOS) and M2 markers (Arg1, CD206) in macrophage cell line; assay type: cell-based; conditions: for Arg1 protein / GAPDH protein / CD206 protein / GAPDH protein: 72 hours; for IL-1β protein / GAPDH protein / iNOS protein / GAPDH protein: 24 hours
Procedure: Mouse macrophage cell line J774A.1 (JCRB9108) was purchased from JCRB Cell Bank (Laboratory of Cell Cultures), Osaka, Japan. Cells were cultured in DMEM containing 10% FBS and 1% penicillin/streptomycin.
The J774A.1 cells (Example 5-1) were seeded on a dish having a diameter of 6 cm. After 4 days, proteins were collected using a cell lysis buffer containing a cocktail of protease inhibitors. The protein concentration was measured by BCA assay. Then, 50 μg of each sample was subjected to SDS-PAGE, and the electrophoresed proteins were transferred to a polyvinylidene difluoride membrane. The membrane was blocked with a blocking buffer for 1 hour, and then the proteins were allowed to react with primary antibodies at 4° C. overnight. The proteins were further allowed to react with a secondary antibody at room temperature for 1 hour and detected using ECL Western Blotting Detection System. To detect the M1 markers iNOS and IL-1β, lipopolysaccharide (LPS) (100 ng/ml) and methylcobalamin were added at 24 hours before collecting the proteins. To detect the M2 markers Arg1 and CD206, IL-4 (20 ng/ml) and methylcobalamin were added at 72 hours before collecting the proteins.
The primary antibodies used were a rabbit anti-IL-1β polyclonal antibody (Santa Cruz), a rabbit anti-iNOS monoclonal antibody (Abeam), a rabbit anti-Arg1 polyclonal antibody (Santa Cruz), and a rabbit anti-CD206 monoclonal antibody (Abeam). The secondary antibody used was anti-rabbit IgG, horseradish peroxidase-linked whole antibody from donkey (GE Healthcare Life Sciences).

[2] = test system: rat spinal cord injury model; assay: Thermal algesimetry test in rat spinal cord injury model; assay type: in vivo; conditions: for Thermal algesimetry test, Time after spying infrared thermal stimulation: right sole
Procedure: Six-week-old female Wistar rats were used. The rats were purchased from Charles River Laboratories Japan, Inc. (Yokohama, Japan). Anesthesia was performed as follows. A 1:10 dilution of a mixture of three anesthetic agents in physiological saline was administered by intraperitoneal injection. One dose consisted of 0.2 mg/kg of midazolam, 0.015 mg/kg of medetomidine, and 0.25 mg/kg of butorphanol. The rat was placed in a prone position on an operating table, and a dorsal midline incision was made. The T10 vertebral arch was removed to expose the posterior face of the spinal cord, and the left spinal cord was hemisected using a sharp-pointed surgical scalpel (spitz mess). The skin was sutured using a 4-0 nylon thread and the surgery was completed. A comparison was made among three groups: a methylcobalamin treatment group, an untreated group, and a sham group. Immediately after the surgical operation, an osmotic minipump filled with methylcobalamin (1 mg/kg/day) or physiological saline was placed for the methylcobalamin treatment group and the untreated group, respectively, and left in the left dorsal subcutaneous space. The sham group underwent only resection of the Th10 vertebral arch.
Each rat was separately accommodated in a dedicated cage, an infrared thermal stimulation was applied to the right sole, and time until the rat retracted the hind limb was measured. To avoid damage to the skin, the stimulation was continued for 15 seconds at the maximum. The evaluations were performed before surgery, and at 7, 14, 21, and 28 days after the surgery.

[3] = test system: microglia cell line (6-3 cells); assay: Western blot of M1 markers (iNOS, IL-1β) and M2 markers (Arg1, CD206) in microglia; assay type: cell-based
Procedure: To a microglia cell line (6-3 cells), LPS (100 ng/ml) and an anti-inflammatory cytokine IL-4 (20 ng/ml) were added. Methylcobalamin solutions each having a different concentration ranging from 1 nM to 1 mM were added to the mixture, and proteins were recovered from each mixture at 1 and 3 days after the addition. Electrophoresis and transfer to a membrane were performed, the membrane was blocked, and the cells were allowed to react with each of primary antibodies against M1 markers (iNOS and IL-1β) and M2 markers (Arg1 and CD206) at 4° C. overnight. Cells were allowed to react with a secondary antibody at room temperature for 1 hour, and bands were detected using a detector.
The primary antibodies used were an anti-iNOS antibody, an anti-IL-1β antibody, an anti-Arg1 antibody, and an anti-CD206 (a mannose receptor) antibody. The secondary antibody used was an Anti-Rabbit IgG, HRP-Linked Whole Ab Sheep.

C/C1=C2/[N-][C@H]([C@H](CC(N)=O)[C@@]2(C)CCC(=O)NC[C@@H](C)OP(=O)([O-])O[C@H]2[C@@H](O)[C@@H](n3cnc4cc(C)c(C)cc43)O[C@@H]2CO)[C@]2(C)N=C(/C(C)=C3N=C(/C=C4N=C1[C@@H](CCC(N)=O)C\4(C)C)[C@@H](CCC(N)=O)[C@]\3(C)CC(N)=O)[C@@H](CCC(N)=O)[C@]2(C)CC(N)=O.[CH3-].[Co+3] [MeCbl, methylcobalamin]
Arg1 protein / GAPDH protein ([1]; IL-4 20 ng/ml + MeCbl 1 nM): 1.42 | CD206 protein / GAPDH protein ([1]; IL-4 20 ng/ml + MeCbl 1 nM): 1.28 | Arg1 protein / GAPDH protein ([1]; IL-4 20 ng/ml + MeCbl 10 nM): 1.60 | CD206 protein / GAPDH protein ([1]; IL-4 20 ng/ml + MeCbl 10 nM): 1.49 | Arg1 protein / GAPDH protein ([1]; IL-4 20 ng/ml + MeCbl 100 nM): 1.93 | CD206 protein / GAPDH protein ([1]; IL-4 20 ng/ml + MeCbl 100 nM): 1.53 | Arg1 protein / GAPDH protein ([1]; IL-4 20 ng/ml + MeCbl 100 nM, listed as methylcobalamin): significantly increased | Arg1 protein / GAPDH protein ([1]; IL-4 20 ng/ml + MeCbl 1 μM): 1.65 | CD206 protein / GAPDH protein ([1]; IL-4 20 ng/ml + MeCbl 1 μM): 1.58 | Arg1 protein / GAPDH protein ([1]; IL-4 20 ng/ml + MeCbl 1 μM, listed as methylcobalamin): significantly increased | Arg1 protein / GAPDH protein ([1]; IL-4 20 ng/ml + MeCbl 10 μM): 1.26 | CD206 protein / GAPDH protein ([1]; IL-4 20 ng/ml + MeCbl 10 μM): 1.08 | Arg1 protein / GAPDH protein ([1]; IL-4 20 ng/ml + MeCbl 100 μM): 0.92 | CD206 protein / GAPDH protein ([1]; IL-4 20 ng/ml + MeCbl 100 μM): 1.12 | Arg1 protein / GAPDH protein ([1]; IL-4 20 ng/ml + MeCbl 1 mM): 0.54 | CD206 protein / GAPDH protein ([1]; IL-4 20 ng/ml + MeCbl 1 mM): 0.78 | methylcobalamin concentration at peaks of the CD206 levels ([1]; IL-4 + methylcobalamin, Western blot): 100 to 1000 nM | IL-1β protein / GAPDH protein ([1]; LPS 100 ng/ml + MeCbl 1 nM): 0.91 | iNOS protein / GAPDH protein ([1]; LPS 100 ng/ml + MeCbl 1 nM): 0.87 | IL-1β protein / GAPDH protein ([1]; LPS 100 ng/ml + MeCbl 10 nM): 0.68 | iNOS protein / GAPDH protein ([1]; LPS 100 ng/ml + MeCbl 10 nM): 0.56 | IL-1β protein / GAPDH protein ([1]; LPS 100 ng/ml + MeCbl 100 nM): 0.46 | iNOS protein / GAPDH protein ([1]; LPS 100 ng/ml + MeCbl 100 nM): 0.15 | IL-1β protein / GAPDH protein ([1]; LPS 100 ng/ml + MeCbl 100 nM, listed as methylcobalamin): significantly decreased | IL-1β protein / GAPDH protein ([1]; LPS 100 ng/ml + MeCbl 1 μM): 0.46 | iNOS protein / GAPDH protein ([1]; LPS 100 ng/ml + MeCbl 1 μM): 0.27 | IL-1β protein / GAPDH protein ([1]; LPS 100 ng/ml + MeCbl 10 μM): 0.60 | iNOS protein / GAPDH protein ([1]; LPS 100 ng/ml + MeCbl 10 μM): 0.33 | IL-1β protein / GAPDH protein ([1]; LPS 100 ng/ml + MeCbl 100 μM): 0.75 | iNOS protein / GAPDH protein ([1]; LPS 100 ng/ml + MeCbl 100 μM): 0.45 | IL-1β protein / GAPDH protein ([1]; LPS 100 ng/ml + MeCbl 1 mM): 1.26 | iNOS protein / GAPDH protein ([1]; LPS 100 ng/ml + MeCbl 1 mM): 0.53 | iNOS level (Western blot) as compared with LPS alone ([1]; LPS + 100 nM to 10 μM methylcobalamin): significantly decreased | Thermal algesimetry test, Time after spying infrared thermal stimulation ([2]; 0 days after surgery (before surgery)): 9.99 s | right-lower-extremity hyperesthesia (thermal algesimetry test) ([2]; 21 and 28 days after the surgery, 1 mg/kg/day osmotic minipump): significantly improved | Thermal algesimetry test, Time after spying infrared thermal stimulation ([2]; 7 days after surgery): 8.59 s | Thermal algesimetry test, Time after spying infrared thermal stimulation ([2]; 14 days after surgery): 8.86 s | Thermal algesimetry test, Time after spying infrared thermal stimulation ([2]; 21 days after surgery): 9.61 s | Thermal algesimetry test, Time after spying infrared thermal stimulation ([2]; 28 days after surgery): 9.92 s | amount of Arg1 protein as compared with IL-4 alone ([3]; IL-4 + 1 nM to 10 μM methylcobalamin): significantly increased | amount of CD206 as compared with IL-4 alone ([3]; IL-4 + 10 nM to 100 nM methylcobalamin): significantly increased | Arg1 (amount of protein, IL-4 alone = 1.00) ([3]; MeCbl 1 nM): 1.78 | CD206 (amount of protein, IL-4 alone = 1.00) ([3]; MeCbl 1 nM): 1.11 | Arg1 (amount of protein, IL-4 alone = 1.00) ([3]; MeCbl 10 nM): 2.03 | CD206 (amount of protein, IL-4 alone = 1.00) ([3]; MeCbl 10 nM): 1.42 | Arg1 (amount of protein, IL-4 alone = 1.00) ([3]; MeCbl 100 nM): 2.72 | CD206 (amount of protein, IL-4 alone = 1.00) ([3]; MeCbl 100 nM): 1.39 | Arg1 (amount of protein, IL-4 alone = 1.00) ([3]; MeCbl 1 μM): 2.20 | CD206 (amount of protein, IL-4 alone = 1.00) ([3]; MeCbl 1 μM): 1.17 | Arg1 (amount of protein, IL-4 alone = 1.00) ([3]; MeCbl 10 μM): 2.08 | CD206 (amount of protein, IL-4 alone = 1.00) ([3]; MeCbl 10 μM): 1.17 | Arg1 (amount of protein, IL-4 alone = 1.00) ([3]; MeCbl 100 μM): 1.37 | CD206 (amount of protein, IL-4 alone = 1.00) ([3]; MeCbl 100 μM): 1.24 | Arg1 (amount of protein, IL-4 alone = 1.00) ([3]; MeCbl 1 mM): 0.59 | CD206 (amount of protein, IL-4 alone = 1.00) ([3]; MeCbl 1 mM): 1.11 | amount of iNOS protein as compared with LPS alone ([3]; LPS + at least 10 nM methylcobalamin): significantly decreased | amount of IL-1β protein as compared with LPS alone ([3]; LPS + at least 1 μM methylcobalamin): significantly decreased | IL-1β (amount of protein, LPS alone = 1.00) ([3]; MeCbl 1 nM): 1.02 | iNOS (amount of protein, LPS alone = 1.00) ([3]; MeCbl 1 nM): 0.87 | IL-1β (amount of protein, LPS alone = 1.00) ([3]; MeCbl 10 nM): 0.95 | iNOS (amount of protein, LPS alone = 1.00) ([3]; MeCbl 10 nM): 0.74 | IL-1β (amount of protein, LPS alone = 1.00) ([3]; MeCbl 100 nM): 0.83 | iNOS (amount of protein, LPS alone = 1.00) ([3]; MeCbl 100 nM): 0.76 | IL-1β (amount of protein, LPS alone = 1.00) ([3]; MeCbl 1 μM): 0.72 | iNOS (amount of protein, LPS alone = 1.00) ([3]; MeCbl 1 μM): 0.61 | IL-1β (amount of protein, LPS alone = 1.00) ([3]; MeCbl 10 μM): 0.58 | iNOS (amount of protein, LPS alone = 1.00) ([3]; MeCbl 10 μM): 0.46 | IL-1β (amount of protein, LPS alone = 1.00) ([3]; MeCbl 100 μM): 0.53 | iNOS (amount of protein, LPS alone = 1.00) ([3]; MeCbl 100 μM): 0.36 | IL-1β (amount of protein, LPS alone = 1.00) ([3]; MeCbl 1 mM): 0.32 | iNOS (amount of protein, LPS alone = 1.00) ([3]; MeCbl 1 mM): 0.05
